± gives the standard deviation of the averaged measurements.
How the values were obtained:
Test in all cases: relative viability vs DMSO control (72 h) (fraction); higher = more viable cells
RD = system: RD
Outline: (§1)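 Sarcoma cell lines in 384-well plates, seeded to reach 80–90% confluence, were given compound after 24 h and kept 72 h at 37 °C, 5% CO2, with 0.1% DMSO vehicle and a 5 µM positive control. Relative viability came from ATPLite as percent growth, averaged over up to triplicate wells. On the rescaled values, 1 equals full and 0 equals none.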

VA-ES-BJ = system: VA-ES-BJ
Outline: as §1

HT1080 = system: HT1080
Outline: as §1

KHOS-NP = system: KHOS-NP
Outline: as §1

RD-ES = system: RD-ES
Outline: as §1

COc1cc(N2CCC(N3CCN(C)CC3)CC2)ccc1Nc1ncc(Cl)c(Nc2ccccc2P(C)(C)=O)n1 [Brigatinib]
relative viability
Conditions	HT1080	KHOS-NP	RD	RD-ES	VA-ES-BJ
0.00017 µM	1.01 ± 0.024	1.04 ± 0.025	1.06 ± 0.098	0.965 ± 0.041	0.946 ± 0.028
0.00051 µM	1.03 ± 0.035	1.06 ± 0.029	1.06 ± 0.086	0.968 ± 0.034	0.945 ± 0.045
0.00152 µM	1.02 ± 0.056	1.05 ± 0.035	1.07 ± 0.069	0.955 ± 0.03	0.943 ± 0.072
0.00457 µM	1.01 ± 0.091	1.02 ± 0.038	1.05 ± 0.047	0.918 ± 0.036	0.941 ± 0.029
0.01372 µM	1 ± 0.029	1.03 ± 0.038	1.05 ± 0.051	0.873 ± 0.029	0.983 ± 0.05
0.04115 µM	0.984 ± 0.041	1.03 ± 0.026	0.978 ± 0.056	0.839 ± 0.038	0.91 ± 0.053
0.1235 µM	1.01 ± 0.066	0.994 ± 0.029	0.769 ± 0.028	0.701 ± 0.018	0.865 ± 0.04
0.3704 µM	1.03 ± 0.033	0.985 ± 0.055	0.459 ± 0.017	0.457 ± 0.0099	0.662 ± 0.029
1.111 µM	0.93 ± 0.022	0.852 ± 0.011	0.342 ± 0.012	0.317 ± 0.0035	0.272 ± 0.016
3.333 µM	0.573 ± 0.011	0.534 ± 0.047	0.168 ± 0.016	0.165 ± 0.004	0.144 ± 0.0073
10 µM	0.151 ± 0.0098	0.21 ± 0.0058	0.0473 ± 0.014	0.0867 ± 0.0048	0.125 ± 0.0058

Cc1cc2c(F)c(Oc3ncnn4cc(OC[C@@H](C)OC(=O)[C@H](C)N)c(C)c34)ccc2[nH]1 [Brivanib_alaninate]
relative viability
Conditions	HT1080	KHOS-NP	RD	RD-ES	VA-ES-BJ
0.00017 µM	1.05 ± 0.011	1.04 ± 0.032	1.07 ± 0.019	0.953 ± 0.022	1.02 ± 0.034
0.00051 µM	1.04 ± 0.016	1.05 ± 0.017	1.07 ± 0.029	0.9804 ± 0.0097	1.02 ± 0.046
0.00152 µM	1.06 ± 0.028	1.05 ± 0.022	1.1 ± 0.039	0.983 ± 0.025	1.03 ± 0.06
0.00457 µM	1.03 ± 0.013	1.06 ± 0.025	1.09 ± 0.052	0.983 ± 0.018	1.03 ± 0.042
0.01372 µM	1.04 ± 0.013	1.059 ± 0.0083	1.1 ± 0.044	0.996 ± 0.014	1.04 ± 0.039
0.04115 µM	1.03 ± 0.032	1.07 ± 0.024	1.08 ± 0.013	0.989 ± 0.023	0.984 ± 0.029
0.1235 µM	1.04 ± 0.032	1.03 ± 0.029	1.09 ± 0.031	0.962 ± 0.021	1.02 ± 0.035
0.3704 µM	1.054 ± 0.0074	1.03 ± 0.02	1.1 ± 0.05	1 ± 0.048	1.04 ± 0.024
1.111 µM	1.047 ± 0.0084	1.02 ± 0.015	1.12 ± 0.051	0.987 ± 0.056	1.07 ± 0.046
3.333 µM	0.99 ± 0.018	0.917 ± 0.067	1.04 ± 0.071	0.9601 ± 0.0059	1.03 ± 0.013
10 µM	0.978 ± 0.0099	0.6654 ± 0.0056	0.874 ± 0.058	0.926 ± 0.068	0.983 ± 0.029

O=C(c1ccc(F)c(F)c1Nc1ccc(I)cc1F)N1CC(O)([C@@H]2CCCCN2)C1 [Cobimetinib]
relative viability
Conditions	HT1080	KHOS-NP	RD	RD-ES	VA-ES-BJ
0.00017 µM	1.07 ± 0.015	1.09 ± 0.026	1.1 ± 0.017	0.999 ± 0.026	1.05 ± 0.032
0.00051 µM	1.087 ± 0.0045	1.097 ± 0.0056	1.1 ± 0.025	1.02 ± 0.015	1.07 ± 0.048
0.00152 µM	1.067 ± 0.0094	1.085 ± 0.0066	1.07 ± 0.038	0.985 ± 0.022	1.05 ± 0.027
0.00457 µM	1.049 ± 0.01	1.081 ± 0.0044	1.02 ± 0.047	0.986 ± 0.02	1.02 ± 0.033
0.01372 µM	1.06 ± 0.021	1.08 ± 0.014	0.88 ± 0.035	0.945 ± 0.015	0.982 ± 0.043
0.04115 µM	0.876 ± 0.028	0.912 ± 0.042	0.766 ± 0.025	0.979 ± 0.019	0.906 ± 0.036
0.1235 µM	0.586 ± 0.032	0.438 ± 0.024	0.636 ± 0.0091	0.955 ± 0.018	0.747 ± 0.15
0.3704 µM	0.4917 ± 0.0027	0.319 ± 0.012	0.539 ± 0.019	0.982 ± 0.011	0.638 ± 0.15
1.111 µM	0.39 ± 0.019	0.275 ± 0.012	0.461 ± 0.075	0.974 ± 0.016	0.567 ± 0.089
3.333 µM	0.247 ± 0.022	0.28 ± 0.013	0.346 ± 0.083	0.91 ± 0.056	0.451 ± 0.12
10 µM	0.0054 ± 0.00072	0.187 ± 0.0053	0.0053 ± 0.001	0.0147 ± 0.0016	0.209 ± 0.025

Cc1c2oc3c(C)ccc(C(=O)N[C@@H]4C(=O)N[C@H](C(C)C)C(=O)N5CCC[C@H]5C(=O)N(C)CC(=O)N(C)[C@@H](C(C)C)C(=O)O[C@@H]4C)c3nc-2c(C(=O)N[C@@H]2C(=O)N[C@H](C(C)C)C(=O)N3CCC[C@H]3C(=O)N(C)CC(=O)N(C)[C@@H](C(C)C)C(=O)O[C@@H]2C)c(N)c1=O [Dactinomycin]
relative viability
Conditions	HT1080	KHOS-NP	RD	RD-ES	VA-ES-BJ
0.00017 µM	1.02 ± 0.021	1.06 ± 0.025	1.09 ± 0.014	1 ± 0.019	1.01 ± 0.06
0.00051 µM	1.04 ± 0.017	1.07 ± 0.024	1.12 ± 0.072	0.973 ± 0.021	0.994 ± 0.041
0.00152 µM	0.9913 ± 0.0077	1.08 ± 0.022	1.071 ± 0.01	0.943 ± 0.021	0.94 ± 0.06
0.00457 µM	0.712 ± 0.2	1.04 ± 0.056	0.811 ± 0.018	0.88 ± 0.03	0.733 ± 0.026
0.01372 µM	0.553 ± 0.2	0.63 ± 0.018	0.64 ± 0.01	0.621 ± 0.011	0.457 ± 0.017
0.04115 µM	0.391 ± 0.12	0.24 ± 0.033	0.21 ± 0.035	0.0824 ± 0.0062	0.303 ± 0.1
0.1235 µM	0.185 ± 0.011	0.0945 ± 0.0026	0.0929 ± 0.012	0.00823 ± 0.0017	0.151 ± 0.009
0.3704 µM	0.171 ± 0.0055	0.0744 ± 0.009	0.108 ± 0.013	-0.00353 ± 0.00035	0.158 ± 0.014
1.111 µM	0.137 ± 0.0066	0.0665 ± 0.0091	0.0875 ± 0.011	-0.00503 ± 0.00021	0.148 ± 0.014
3.333 µM	0.128 ± 0.011	0.0513 ± 0.009	0.0715 ± 0.0079	-0.00297 ± 0.00075	0.15 ± 0.016
10 µM	0.129 ± 0.003	0.0582 ± 0.0049	0.0653 ± 0.0081	0.00427 ± 0.00047	0.146 ± 0.017

Source: the supplement of paper PMC10883282
